Values quoted from earlier work, collected in patent US20050070514A1, “Therapies for treating respiratory diseases” (priority 2001, published 2005).

Conditions: developed as an antidepressant

COc1ccc(C2CNC(=O)C2)cc1OC1CCCC1 (stereo not shown) [rolipram]
side effects in clinical studies: has psychotropic activity and produces gastrointestinal effects, e.g., pyrosis, nausea and emesis
